Reference: patent publication US20210302366A1, “Method for Pathogen Detection” (priority 2020, published 2021)
≈ marks a conversion by molar mass, not a printed value.

Tests used:
[1] = test system: Pseudomonas aeruginosa; experiment: pathogen detection chip (differential drain current) with agar plating, Pseudomonas aeruginosa; format: cell-based; conditions: for biological sample resistant or sensitive to the interacting agent: from electrical signal pattern and CFU; for trend of number of colony-forming unit (CFU) from agar plating: over the course of culturing
Description: (§1) The drain voltage Vds may cause a drain current Ids to be measured as the electrical signal. In some embodiments, during the course of culturing the biological sample 207A, metabolites and/or the ions of the biological sample 207A generated due to the interaction of which with the interacting agents 207B may cause the front gate voltage Vgs-fg to change and thus the change of drain voltage Vds as well as the measured drain current Ids. By analyzing the electrical signal of the differential drain current ΔIds, several characteristics of the biological sample 207A can be determined within a short time frame and at a relative low sample concentration. In some embodiments, the sensor 20 may occupies a footprint of 5 μm by 5 μm. A bias of +1.8V can be applied to the first gate 209 and a bias of −0.5V can be applied to the second gate 209′ during the measurement of drain current Ids.
(§2) Two approaches can be used to measure the differential drain current ΔIds. One approach is to subtract the drain current Ids measured from a control group of the sensor 20 where no biological sample is introduced into the culturing medium 207 from the drain current Ids measured from an experimental group of the sensor 20 where biological sample is introduced into the culturing medium 207 during the course of culturing. The other approach is to subtract the initial drain current Ids (e.g. at t=0) from the drain current Ids measured from an experimental group of the sensor 20 where biological sample is introduced into the culturing medium 207 during the course of culturing. The latter approach can be adopted for real-time pathogen detection, and the former approach can be adopted in a more systematic study where the concentration of biological sample and the pH value of the culturing medium 207 can be recorded simultaneously.
(§3) To prepare the culturing medium, 200 μL of non-buffered LB broth having predetermined dosages (including zero dosage) of interacting agent was inoculated with predetermined concentration of Pseudomonas aeruginosa and cultured at a temperature of 37° C. The sample was subjected to the pathogen detection using the pathogen detection chip and sensor described herein with a front gate voltage of +1.8V and a back gate voltage of −0.5V for drain current Ids measurement at predetermined time points (e.g., at each hour). The differential drain current ΔIds can be determined using the two approaches previously described, including (1) subtracting the drain current Ids measured from a control group from the drain current Ids measured from an experimental group during the course of culturing; and (2) subtracting the initial drain current Ids (e.g. at t=0) from the drain current Ids measured from an experimental group during the course of culturing. When the former approach is taken, the concentration of biological sample can be determined by agar plating under the same environmental condition.
Sample preparation and measurement condition can be referred to those in Example 3A and are not repeated here for brevity. […] For example, in Example 3B, a differential drain current ΔIds of about 0.16 μA can be identified as a blip in the electrical signal.

[2] = test system: Staphylococcus aureus; experiment: pathogen detection chip (differential drain current) with agar plating, Staphylococcus aureus; format: cell-based; conditions: for blips/sub-blips identified in the electrical signal: first 8 hours of culturing; for biological sample resistant or sensitive to the interacting agent: from electrical signal pattern and CFU; for trend of number of colony-forming unit (CFU) from agar plating: over the course of culturing
Description: as §1, §2
as §3, with “Staphylococcus aureus” for “Pseudomonas aeruginosa”
Sample preparation and measurement condition can be referred to those in Example 2A and are not repeated here for brevity.

[3] = test system: Escherichia coli K12; experiment: minimum inhibitory concentration (MIC) test; format: cell-based
[4] = test system: Escherichia coli; experiment: pathogen detection chip (differential drain current) with agar plating, Escherichia coli; format: cell-based; conditions: for differential drain current ΔIds, local maximum: 2nd hour of culturing
Description: as §1, §2
as §3, with “Escherichia coli” for “Pseudomonas aeruginosa”
Sample preparation and measurement condition can be referred to those in Example 4A and are not repeated here for brevity. […] For example, in Example 4B, a differential drain current ΔIds of greater than 0.07 μA (e.g., about 0.08 μA) can be identified as a blip in the electrical signal. In addition, a differential drain current ΔIds of about 0.04 μA can be identified as a sub-blip at the 6th hour. As previously described, electrical signal lower than 0.03 μA is not considered as a blip or a sub-blip in some of the embodiments.

[5] = test system: Escherichia coli pku57; experiment: microbe, parasite or virus in culture
[6] = test system: Klebsiella pneumoniae; experiment: pathogen detection chip (differential drain current) with agar plating, Klebsiella pneumoniae; format: cell-based
[7] = from electrical signal pattern and CFU
[8] = throughout the first 9 hour of culturing

In the case of `CC1(C)S[C@@H]2[C@H](NC(=O)[C@H](N)c3ccccc3)C(=O)N2[C@H]1C(=O)O` [Ampicillin], the “differential drain current ΔIds, blip” value ([1]; 1st hour of culturing) is reported as “about 0.16 μA”, the “biological sample resistant or sensitive to the interacting agent” value (from here on “biological sample resistant or sensitive”) [1] is reported as “resistant” and the “trend of number of colony-forming unit (CFU) from agar plating” value (“trend of number of colony-forming unit” for short) [1] is reported as “monotonic increasing”. The “blips/sub-blips identified in the electrical signal” value (“blips/sub-blips identified” below) [2] was “no blips or sub-blips (a differential drain current ΔIds showing local maximum lower than 0.03 μA is not identified as a blip or a sub-blip)”, the “biological sample resistant or sensitive” value [2] was “sensitive” and the “trend of number of colony-forming unit” value [2] was “monotonic decreasing”. For the same compound, the “differential drain current ΔIds” value ([2]; throughout the first 8 hour of culturing) was “lower than 0.03 μA”.
With `NC[C@H]1O[C@H](O[C@H]2[C@H](O)[C@@H](O[C@H]3O[C@H](CO)[C@@H](O)[C@H](N)[C@H]3O)[C@H](N)C[C@@H]2N)[C@H](O)[C@@H](O)[C@@H]1O` [Kanamycin] the MIC [3] was 25 µg/mL (≈ 51.6 µM), the “differential drain current ΔIds, local maximum” value [4] was “about 0.08 μA” and the “differential drain current ΔIds, sub-blip” value ([4]; 6th hour of culturing) was “about 0.04 μA”. For the same compound, the MIC [5] was < 50 µg/mL.
In the case of `CN[C@@H]1[C@H](O)[C@H](NC)[C@H]2O[C@@]3(O)C(=O)C[C@@H](C)O[C@H]3O[C@@H]2[C@H]1O` [Spectinomycin], the “differential drain current ΔIds, local maximum” value [4] is reported as “about 0.05 μA”, the “biological sample resistant or sensitive” value [4, 7] is reported as “sensitive” and the “trend of number of colony-forming unit” value ([4]; over the course of culturing) is reported as “neither increasing or decreasing”. For the same compound, the “differential drain current ΔIds” value [4, 8] was “lower than 0.07 μA”.
With Gentamicin the “differential drain current ΔIds, blip” value ([6]; 3rd hour of culturing, LB broth, 37° C.) was “about 0.15 μA”, the “biological sample resistant or sensitive” value [6, 7] was “resistant” and the “trend of number of colony-forming unit” value ([6]; over the course of culturing) was “monotonic increasing”. For the same compound, the “blips/sub-blips identified” value ([1]; first 9 hour of culturing) was “no blips or sub-blips (a differential drain current ΔIds showing local maximum lower than 0.03 μA is not identified as a blip or a sub-blip)”, the “biological sample resistant or sensitive” value [1] was “sensitive” and the “trend of number of colony-forming unit” value [1] was “monotonic decreasing”. For the same compound, the “differential drain current ΔIds” value [1, 8] was “lower than 0.03 μA”, the “blips/sub-blips identified” value [2] was “a blip at the 2nd hour and a sub-blip at the 5th hour” and the “biological sample resistant or sensitive” value [2] was “resistant”. For the same compound, the “trend of number of colony-forming unit” value [2] was “monotonic increasing”.
